Series [1] in a line: Peptide solubility in PBS buffer at 1 mg/mL. In kind it is physicochemical. Particulars: pH 7.4, 1 mg/mL. The procedure: These peptides could be readily dissolved in the PBS buffer, pH 7.4, at 1 mg/mL concentration without adjustment of pH.
Series [2] addresses T1, HER2 receptor (Homo sapiens, UniProt P04626).
T1 construct: Recombinant purified HER2 receptor composed of the ectodomain of HER2 fused to the Fc of human IgG; purchased Xcyte Therapeutics, Seattle, Wash; (provided by Dr. Che Law; a gift, not a catalogue product)
In words: Biacore (surface plasmon resonance) binding of peptides to immobilized HER2. Particulars: for kon: read-out: binding to HER2 kon. An excerpt: Binding of AHNP has been studies by means of surface plasmon resonance (Biacore) technology. In Biacore experiments, one of the interacting molecules (termed the ligand) is immobilized on the sensor surface, and the other interactant (termed the analyte) is continuously flown over that surface in a micro-flow cell. The interaction between the ligand and the analyte are monitored using a light source that is reflected at the immobilized chip. Binding of the analyte to the immobilized ligand changes the resonance angle of the reflected light due to changes in the refractive index of the surface. The response is plotted in real time in the form of sensorgram curves. The advantage with this approach is its sensitivity, ease of use, and ability to perform experiments with few microgram quantities of proteins and peptides. In addition, the kinetic binding studies reveal association and disassociation rates of the analyte which may be more relevant for understanding the pharmacokinetics of drug-receptor interactions.
Binding experiments were performed with the surface plasmon resonance based biosensor instrument Biacore 3000 (Biacore AB, Uppsala, Sweden) at 25° C. Recombinant purified HER2 receptor composed of the ectodomain of HER2 fused to the Fc of human IgG was provided by Dr. Che Law, Xcyte Therapeutics, Seattle, Wash. Immobilization of HER2 in the sensor surface was performed following the standard amine coupling procedure according to manufacturer's instructions. Briefly, 35 pit of a solution containing 0.2M N-ethyl-N-(dimethylaminopropyl) carbodiimide (EDC) and 0.05 M N-hydroxysuccinimide (NHS) were injected at a flow rate of 5 μL/min to activate carboxyl groups on the sensor chip surface. HER2 (40 ng/mL in 10 mM NaOAc buffer, pH 5.0) was flowed over the chip surface at a flow rate of 20 μL/min until the desired level bound protein was reached. Unreacted protein was washed out and unreacted activated groups were blocked by the injection of 35 μL of 1 M ethanolamine at 5 μL/min. […] A reference surface was generated simultaneously under the same conditions but without HER2 injection and used as a blank to correct for instrument and buffer artifacts. Peptides were injected at variable concentrations at 20 μL/min flow rate and binding to the HER2 receptor immobilized on the chip was monitored in real time. Each sensorgram consists of an association phase (first 240 s), reflecting binding of the injected peptide to the receptor, followed by a dissociation phase (300 s), during which the running buffer is passed over the chip and the bound peptide is being washed off the receptor surface.
A general note: Surface plasmon resonance follows binding to a sensor surface in real time, without labels.

Series [3] concerns MCF-7 parental strain (MCF/Par) p185-expressing cells. Put plainly: Combination treatment with tamoxifen, growth inhibition, MCF-7 parental. Particulars: peptide 1 μg/ml plus tamoxifen. In kind it is cell-based.
The test system of series [4] is MCF-7/H2 p185-overexpressing cells. In words: Combination treatment with tamoxifen, growth inhibition, MCF-7/H2. Particulars: peptide 1 μg/ml plus tamoxifen. In kind it is cell-based.
In series [5] the test system is T6-17 cells. The settings on record: for % inhibition of T6-17 cell proliferation in MTT assays: 1 μg/mL of peptides for 48 h. As to the method:
(See reference 46 below.) HER2-expressing transformed tumor cells (T6-17) were used for this purpose. […] Each value represents an average of at least four samples.
The MTT assay has been used for measuring cell growth as previously described in ref 446. Briefly, T6-17 cells were seeded in 96-well plates overnight in DMEM containing 10% FBS (1000 per well). T6-17 is derived from NIH3T3 by overexpressing the human HER2 receptor. Cells were cultured in 100 μL of fresh medium containing 1 μg/mL of peptides for 48 h. […] A total of 25 μL of MTT solution (5 mg/mL in PBS) was added to each well, and after 2 h of incubation at 37° C., 100 μA of the extraction buffer (20% w/v of SDS, 50% N,N-dimethyl formamide, pH 4.7) were added. After an overnight incubation at 37° C., the optical density at 600 rim was measured using an ELISA reader.

Where [6] appears, read: Biacore, immobilized HER2, 25° C., read-out: binding to HER2 KD.
The mark [7] stands for this setting: Biacore, immobilized HER2, 25° C., read-out: binding to HER2 koff.
The mark [8] stands for this setting: Biacore, immobilized HER2, 25° C.

Entries after “also recorded” stand apart in the source; their conditions may differ. Where two headings read alike, the source gives them in different places. Positions of bridges follow the written chain, without caps; N, C: chain ends. Residues, ends and D or L forms follow the SMILES beside them. No end group written: not given here.

T1 sequence (P04626 23-652 limits assumed): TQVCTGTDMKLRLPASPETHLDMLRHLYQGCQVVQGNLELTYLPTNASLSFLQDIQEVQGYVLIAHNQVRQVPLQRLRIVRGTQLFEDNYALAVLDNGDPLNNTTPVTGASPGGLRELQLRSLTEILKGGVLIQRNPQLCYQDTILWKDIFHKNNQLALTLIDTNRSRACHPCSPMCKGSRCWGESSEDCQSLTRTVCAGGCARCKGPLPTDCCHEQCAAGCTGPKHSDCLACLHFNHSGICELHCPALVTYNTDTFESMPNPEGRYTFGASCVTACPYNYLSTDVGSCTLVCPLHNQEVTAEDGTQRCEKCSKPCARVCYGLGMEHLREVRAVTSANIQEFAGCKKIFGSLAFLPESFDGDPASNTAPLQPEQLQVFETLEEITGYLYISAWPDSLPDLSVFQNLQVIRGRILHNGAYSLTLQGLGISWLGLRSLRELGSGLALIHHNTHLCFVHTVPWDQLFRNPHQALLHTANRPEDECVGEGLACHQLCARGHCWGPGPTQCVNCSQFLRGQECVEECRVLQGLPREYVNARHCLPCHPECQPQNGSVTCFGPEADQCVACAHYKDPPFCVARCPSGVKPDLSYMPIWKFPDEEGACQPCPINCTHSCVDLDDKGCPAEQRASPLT

Consider `CSCC[C@H](NC(=O)[C@H](Cc1ccc(O)cc1)NC(=O)[C@@H]1CSSC[C@H](NC(=O)[C@@H](N)Cc2ccccc2)C(=O)N[C@@H](CC(=O)O)C(=O)NCC(=O)N[C@@H](Cc2ccccc2)C(=O)N[C@@H](Cc2ccc(O)cc2)C(=O)N[C@@H](C)C(=O)N1)C(=O)N[C@@H](CC(=O)O)C(=O)N[C@H](C(=O)N[C@@H](CCCCN)C(N)=O)C(C)C` [Peptide 5] (H-FCDGFYACYMDVK-NH2; disulfide 2-8), for which, in series [1], the solubility is less than 1000 µg/mL and the “solubility (in words)” value is on record as “no improvement in solubility”. The Kd in series [2] (setting [6]) is 830 nM. Besides, the “lower receptor affinity than 7” value in series [2] (relative to peptide 7) stood at 14%.
Consider `CC(C)[C@H](NC(=O)[C@H](CC(=O)O)NC(=O)[C@H](CCCCN)NC(=O)[C@H](Cc1ccc(O)cc1)NC(=O)[C@@H]1CSSC[C@H](NC(=O)[C@@H](N)Cc2ccccc2)C(=O)N[C@@H](CC(=O)O)C(=O)NCC(=O)N[C@@H](Cc2ccccc2)C(=O)N[C@@H](Cc2ccc(O)cc2)C(=O)N[C@@H](C)C(=O)N1)C(=O)O` [Peptide 6] (H-FCDGFYACYKDV-OH; disulfide 2-8; N-terminus assumed), for which, in series [1], the solubility is greater than 1000 µg/mL and the “solubility (in words)” value is given as “much higher solubility”. For the same compound, the Kd in series [2] (setting [6]) was determined as 5700 nM. Also, the koff in series [2] (setting [7]) is 0.00125 s⁻¹. Besides, the kon in series [2] (setting [8]) was 219 M⁻¹ s⁻¹. In addition, the “fold decrease in binding affinity for HER2” value in series [2] (Lys-containing analogues vs parent peptide) was determined as 8.8 fold. The “decrease in binding affinity” value in series [2] (Met replaced with Lys) was “about 1 order of magnitude”.
As to “FCGDGFYACYMDV-NH2 (disulfide 2-9 (inferred)) [SEQ ID NO: 143]”, the “growth inhibition in combination with tamoxifen (in words)” value in series [3] and in series [4] was “enhanced in vitro inhibition of proliferation” each time.
In the case of `CSCC[C@H](NC(=O)[C@@H](Cc1ccc(O)cc1)NC(=O)[C@@H]1CSSC[C@H](NC(=O)[C@H](N)Cc2ccccc2)C(=O)N[C@@H](CC(=O)O)C(=O)NCC(=O)N[C@@H](Cc2ccccc2)C(=O)N[C@@H](Cc2ccc(O)cc2)C(=O)N[C@@H](C)C(=O)N1)C(=O)N[C@@H](CC(=O)O)C(=O)N[C@H](C(N)=O)C(C)C` [Peptide 4], in series [1], the solubility was greater than 1000 µg/mL and the “solubility (in words)” value is “much higher solubility”. Besides, the dissociation constant Kd in series [2] (setting [6]) is 350 nM. For the same compound, in series [2] (setting [7]), the koff is 0.000603 s⁻¹. The kon in series [2] (setting [8]) came to 1720 M⁻¹ s⁻¹.
`CSCC[C@H](NC(=O)[C@H](Cc1ccc(O)cc1)NC(=O)[C@@H]1CSSC[C@H](NC(=O)[C@@H](N)Cc2ccccc2)C(=O)N[C@@H](CC(=O)O)C(=O)NCC(=O)N[C@@H](Cc2ccccc2)C(=O)N[C@@H](Cc2ccc(O)cc2)C(=O)N[C@@H](C)C(=O)N1)C(=O)N[C@@H](CC(=O)O)C(=O)N[C@H](C(=O)O)C(C)C` [Peptide 2]: in series [1], the solubility was less than 1000 µg/mL and the “solubility (in words)” value is recorded as “no improvement in solubility”. Further, the “fold increase in binding affinity for HER2 relative to the comparator peptide” value in series [2] (2 vs linear 9, AHNP vs 2, 3 vs AHNP) is recorded as “more than 5 fold”. Further, the dissociation constant Kd in series [2] (setting [6]) was 650 nM. The koff in series [2] (read-out: binding to HER2 koff) amounted to 0.000643 s⁻¹. The association rate constant (kon) in series [2] amounted to 990 M⁻¹ s⁻¹. Moreover, the “% inhibition of T6-17 cell proliferation in MTT assays” value in series [5] is 22.3%.
As to `CSCC[C@H](NC(=O)[C@H](Cc1ccc(O)cc1)NC(=O)[C@@H]1CSSC[C@H](NC(=O)[C@@H](N)Cc2ccc(O)cc2)C(=O)N[C@@H](CC(=O)O)C(=O)NCC(=O)N[C@@H](Cc2ccccc2)C(=O)N[C@@H](Cc2ccc(O)cc2)C(=O)N[C@@H](C)C(=O)N1)C(=O)N[C@@H](CC(=O)O)C(=O)N[C@H](C(N)=O)C(C)C` [Peptide 3] (H-YCDGFYACYMDV-NH2; disulfide 2-8; N-terminus assumed), the “growth inhibition in combination with tamoxifen (in words)” value in series [3] and in series [4] was “enhanced growth inhibition” each time. Further, in series [1], the solubility was less than 1000 µg/mL. Further, the dissociation rate constant (koff) in series [2] (setting [7]) was determined as 0.000294 s⁻¹; in series [2] (Biacore, immobilized HER2, read-out: koff), 0.000294 s⁻¹. Also, the kon in series [2] (setting [8]) amounted to 1960 M⁻¹ s⁻¹. The Kd in series [2] (Biacore, read-out: receptor-binding affinity KD) is 150 nM. The “biological activity in the MTT assay relative to comparator (in words)” value in series [5] (T6-17 cells) is given as “almost twice the activity of AHNP”.
Regarding `CSCC[C@H](NC(=O)[C@H](Cc1ccc(O)cc1)NC(=O)[C@@H]1CSSC[C@H](NC(=O)[C@@H](N)Cc2ccccc2)C(=O)NCC(=O)N[C@@H](CC(=O)O)C(=O)NCC(=O)N[C@@H](Cc2ccccc2)C(=O)N[C@@H](Cc2ccc(O)cc2)C(=O)N[C@@H](C)C(=O)N1)C(=O)N[C@@H](CC(=O)O)C(=O)N[C@H](C(=O)O)C(C)C` [Peptide 8] (H-FCGDGFYACYMDV-OH; disulfide 2-9; N-terminus assumed), in series [1], the solubility was greater than 1000 µg/mL and the “solubility (in words)” value is given as “much higher solubility”. Moreover, the off-rate constant (koff) in series [2] (setting [7]) came to 0.000701 s⁻¹. The kon in series [2] (setting [8]) amounted to 922 M⁻¹ s⁻¹.
As for `CSCC[C@H](NC(=O)[C@H](Cc1ccc(O)cc1)NC(=O)[C@@H]1CSSC[C@H](NC(=O)[C@H](Cc2ccccc2)NC(=O)CN)C(=O)N[C@@H](CC(=O)O)C(=O)NCC(=O)N[C@@H](Cc2ccccc2)C(=O)N[C@@H](Cc2ccc(O)cc2)C(=O)N[C@@H](C)C(=O)N1)C(=O)N[C@@H](CC(=O)O)C(=O)N[C@H](C(=O)O)C(C)C` [Peptide 7] (H-GFCDGFYACYMDV-OH; disulfide 3-9), in series [1], the solubility was greater than 1000 µg/mL and the “solubility (in words)” value is on record as “increased solubility; also recorded: good solubility”. Moreover, in series [2] (setting [6]), the dissociation constant (Kd) came out at 730 nM. For the same compound, the koff in series [2] (setting [7]) stood at 0.000808 s⁻¹. Also, the kon in series [2] (setting [8]) is 1110 M⁻¹ s⁻¹.
Take `CSCC[C@H](NC(=O)[C@H](Cc1ccc(O)cc1)NC(=O)[C@H](CS)NC(=O)[C@H](C)NC(=O)[C@H](Cc1ccc(O)cc1)NC(=O)[C@H](Cc1ccccc1)NC(=O)CNC(=O)[C@H](CC(=O)O)NC(=O)[C@H](CS)NC(=O)[C@@H](N)Cc1ccccc1)C(=O)N[C@@H](CC(=O)O)C(=O)N[C@H](C(=O)O)C(C)C` [Peptide 9]: in series [1], the solubility was greater than 1000 µg/mL and the “solubility (in words)” value is listed as “much higher solubility”. In series [2], binding was put at a Kd of 3560 nM and the kon stood at 298 M⁻¹ s⁻¹. The off-rate (koff) in series [2] (read-out: binding to HER2 koff) came out at 0.00106 s⁻¹. In addition, the “% inhibition of T6-17 cell proliferation in MTT assays” value in series [5] amounted to 12.8%.

The term solubility denotes the dissolved amount per volume that the medium holds. The term Kd denotes the equilibrium constant for the complex coming apart. Broadly, the koff is the first-order rate constant of dissociation. As a reminder, the kon is the second-order rate constant of association.

Source of the values: US7998924B2, “Compounds that bind to p185 and methods of using the same” (The Trustees of The University of Pennsylvania, priority 2001, dated 2011).
